According to patent US20250320556A1, “METHODS AND RELATED ASPECTS FOR DIGITAL MULTI-TEMPERATURE FLUOROMETRIC DETECTION” (THE JOHNS HOPKINS UNIVERSITY, priority 2024, published 2025):

What was measured:
[1] = tested on: H23 cell line; experiment: Hypomethylating drug treatment of H23 cells, methylation read out by 15-plex FLAP-Melt; type: cell-based, human; settings: 500 nM, course of 7 days
Description: (§1) FIGS. 24A-24D. Methylation analysis in Aza-treated cell lines. Normalized methylation levels in untreated and 500 nM Aza-treated cells for H23 (A) and H520 (B) cell lines. Relative methylation changes in Aza-treated cells, normalized to untreated controls, are shown as clustered bar plots. Each cluster represents a loci from the 15-plex panel, with bars indicating different time points. (C) H23 cell line. (D) H520 cell line.
(§2) A notable application of digital PCR-based cfDNA tests is longitudinal disease progression monitoring over and after a course of treatment due to the quantification capability of the technology. Next, we sought to evaluate the performance of our assay in detecting multiple methylation biomarkers in real biological samples with a focus on the ability of our assay to quantify methylation level changes. We started with two cancer cell lines, H23 and H520, derived from lung tissues of NSCLC patients. To replicate a typical treatment monitoring scenario, we conducted hypomethylating drug treatment on the cell lines using 5-Azacytidine (5-Aza), a drug that can irreversibly bind to DNA methyltransferase after being incorporated into DNA and inhibits its activity. H520 and H23 were treated with 5-Aza at 500 nM over a course of 5 and 7 days, respectively. […]

[2] = tested on: H520 cell line; experiment: Hypomethylating drug treatment of H520 cells, methylation read out by 15-plex FLAP-Melt; type: cell-based, human; settings: 500 nM, course of 5 days
Description: as §1, §2

## Nc1ncn([C@@H]2O[C@H](CO)[C@@H](O)[C@H]2O)c(=O)n1 [5-Aza, 5-Azacytidine]
[1]
  confluency rate of treated cells compared with untreated cells: much lower
[1]; vs untreated cells, majority of the targets
  methylation level of targets (15-plex panel) in treated cells: decreasing trend
[2]
  confluency rate of treated cells compared with untreated cells: much lower
[2]; vs untreated cells
  methylation levels of targets (15-plex panel) in treated cells: decreased overtime
